Blank lines part the entries; values can stand above or below the substance they belong to.
What was measured:
[1] = tested on: GAS41-YEATS; assay: Peptide array-based binding assay, GAS41-YEATS; parameters: species or system human; conditions: 10 μM YEATS domain, 4 °C overnight, anti-GST/HRP chemiluminescence
Description: (§1) For the assay using the MODified Histone Peptide Array, the same cDNA sequences encoding human YEATS domains were amplified by PCR and subcloned into a pCR2.1 vector with a GST-encoding sequence inserted after an N-terminal polyhistidine tag. For microscale thermophoresis measurements, a similar construct but without GST was used. Site-directed mutagenesis of AF9-YEATS (residues 1–138) was conducted by PCR using the DpnI restriction enzyme and the following primer sets: 5′-CCTTCACGCATCCTTTCCTCGTCCTAAAC-3′ (forward) and 5′-GGAAAGGATGCGTGAAGGTGAAACACCAC-3′ (reverse) for E57A and 5′-CGACTATGACCTGTTTCTGCATCTCG-3′ (forward) and 5′-GCAGAAACAGTGCATAGTCGAAGCGAAC-3′ (reverse) for D103A. The introduced mutations were verified by DNA sequencing. For X-ray structural analysis, the cDNAs encoding AF9-YEATS (residues 1–138) and YEATS2-YEATS (202–338) were amplified by PCR and subcloned into the pCR2.1 vector encoding GST and the polyhistidine tag. […]
(§2) Assays were performed using the MODified Histone Peptide Array (Active Motif) following the manufacturer’s protocol. […] Protein binding was detected by Chemi-Lumi One Super (Nacalai Tesque). Signal intensities were quantified by using the Protein Array Analyzer for ImageJ (written by Gilles Carpentier, 2010. The macro is available online: http://rsb.info.nih.gov/ij/macros/toolsets/Protein Array Analyzer.txt).

[2] = target: T1, AF9-YEATS (Homo sapiens, UniProt P42568); assay: Peptide array-based binding assay, AF9-YEATS; conditions: 10 μM YEATS domain, 4 °C overnight, anti-GST/HRP chemiluminescence
T1 construct: For ITC experiments, the cDNAs encoding AF9-YEATS (residues 1–138) and YEATS2-YEATS (200–349) were inserted into the same vector; polyhistidine tag (N); GST (N); made in house
T1 sequence (P42568 1-138): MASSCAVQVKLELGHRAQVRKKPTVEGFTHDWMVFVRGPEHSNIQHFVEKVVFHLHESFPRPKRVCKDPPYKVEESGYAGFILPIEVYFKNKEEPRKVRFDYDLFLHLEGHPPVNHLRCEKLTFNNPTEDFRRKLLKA
Description: as §1, §2

[3] = tested on: ENL-YEATS; assay: Peptide array-based binding assay, ENL-YEATS; parameters: species or system human; conditions: 10 μM YEATS domain, 4 °C overnight, anti-GST/HRP chemiluminescence
Description: as §1, §2

[4] = target: YEATS2-YEATS; parameters: method as in 2 sources, one per row (each row's own in cited_ref): ref 50 = [50]; PMID 27103431; doi:10.1038/cr.2016.49; 50 Zhao D. Guan H. Zhao S. Mi W. Wen H. Li Y. YEATS2 is a selective histone crotonylation reader Cell Res. 26 2016 629 632 27103431 10.1038/cr.2016.49 PMC4856769 ||| ref 31 = [31]; PMID 29057918; doi:10.1038/s41467-017-01173-4; 31 Mi W. Guan H. Lyu J. Zhao D. Xi Y. Jiang S. YEATS2 links histone acetylation to tumorigenesis of non-small cell lung cancer Nat. Commun. 8 2017 1088 29057918 10.1038/s41467-017-01173-4 PMC5651844; conditions: cited from earlier work
[5] = tested on: HDAC6; conditions: 1 μM TSA, preincubated 37 °C 1 h, NCP monoacetylated at H4 K5, K8, K12 or K16, 16 h, dot blot
Description: First, we examined whether the reconstituted NCP with Kac is functional as a substrate for lysine deacetylases (KDACs) in vitro. We tested activity of histone deacetylase 6 (HDAC6) toward NCP-containing H4 with K5ac, K8ac, K12ac, or K16ac. […] Subsequently, we examined whether a HDAC-specific inhibitor, trichostatin A (TSA), inhibits deacetylation of Kac-containing NCPs.
The NCPs for deacetylation assays were reconstituted using unmodified H2B. In each deacetylation reaction, 200 ng of the Kac-containing NCP was incubated with 50, 100, 200, or 400 ng of HDAC6 (SignalChem; cat. no. H88-30 G) in 20 μl at 37 °C for 16 h. In the inhibitor assays, TSA was added to the reaction mixture not containing NCP to a final concentration of 1 μM and preincubated at 37 °C for 1 h; NCP monoacetylated either at K5, K8, K12, or K16 of H4 was then added. After the reactions, samples were spotted on a nitrocellulose membrane (BioTrace NT Nitrocellulose Transfer Membrane, 0.2 μm, Pall Corporation, cat. no. 66485) and immunoblotted using H4-specific antibodies, each recognizing acetylation at K5, K8, K12, or K16.

binding on MODified Histone Peptide Array [1]: bound
binding on MODified Histone Peptide Array [2]: bound
binding on MODified Histone Peptide Array [3]: bound
Substance: H4 (1–19) tail peptide diacetylated at K5/K8: peptide on MODified Histone Peptide Array (SGRGKGGKGLGKGGAKRHR; K5 and K8 acetylation; UniProt P62805 2-20, looked up, fragment)

Substance: K27-crotonylated H3 (1–34) peptide: K27-crotonylated H3 (1–34) peptide of ref 50
Kd [4]: 31.7 µM

Substance: trichostatin A [TSA]
inhibition of deacetylation by HDAC6 [5]: inhibited deacetylation of all four Kac residues by HDAC6
